The assay has as its system glutathione peroxidase. Nature of the assay: Hydrogen peroxide tests, glutathione peroxidase reactivity. The class given is biochemical. The following applies: A340 nm, 25 degrees Celsius; low and high concentration. The procedure:
The inventive oxygen-enriched output fluid material was tested for the presence of hydrogen peroxide by testing the reactivity with glutathione peroxidase using a standard assay (Sigma). Briefly, glutathione peroxidase enzyme cocktail was constituted in deionized water and the appropriate buffers. Water samples were tested by adding the enzyme cocktail and inverting. Continuous spectrophotometric rate determination was made at A340 nm, and room temperature (25 degrees Celsius).
Water samples were tested by adding the enzyme cocktail and inverting. Continuous spectrophotometric rate determination was made at A340 nm, and room temperature (25 degrees Celsius).

In the case of `OO` [hydrogen peroxide], the “reactivity with glutathione peroxidase” value is “strong reactivity”.

The values are drawn from patent publication US8980325B2, “Compositions and methods for treating digestive disorders” (Revalesio Corporation, priority 2008, dated 2015).
